Molecules are shown by their SMILES. Converted amounts (≈) assume the structure as drawn.

The first assay concerns Pseud. aeruginosa EP-01. Nature of the assay: Anti-bacterial activity (MIC), agar dilution. The class given is cell-based. As to conditions: Pseudomonas aeruginosa, EP01, 18 h, Pseud. aeruginosa EP-01; agar dilution, about 10^6 CFU/ml, 18 hours, 37° C.; read-out: MIC. An outline of the steps: (§1)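 MIC values (μg/ml) come from agar dilution: strains grown overnight in Mueller-Hinton broth, diluted to roughly 10^6 CFU/ml, spotted on Mueller-Hinton agar containing twofold serial antibiotic dilutions, and read after 18 hours at 37° C.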
(In agar dilution the substance is mixed into plates at graded concentrations.)
The term MIC denotes the smallest concentration in the dilution series that meets the test's criterion for growth inhibition. In the case of `C[N+](C)(C/C=C/C1=C(C(=O)[O-])N2C(=O)[C@@H](NC(=O)/C(=N\OCF)c3nsc(N)n3)[C@H]2SC1)CC(=O)NCC(N)=O` [Example 73], the MIC stood at 1.56 µg/mL (≈ 2.6 µM).
Still for that read-out and setting: next, `C[N+](C)(C/C=C/C1=C(C(=O)[O-])N2C(=O)[C@@H](NC(=O)/C(=N\OCF)c3nsc(N)n3)[C@H]2SC1)CC(=O)N(CCO)CCO` [Example 74]: 1.56 µg/mL (≈ 2.47 µM); `C[N+](C)(C/C=C/C1=C(C(=O)[O-])N2C(=O)[C@@H](NC(=O)/C(=N\OCF)c3nsc(N)n3)[C@H]2SC1)CC(=O)NCCO` [Example 75]: 1.56 µg/mL (≈ 2.66 µM); `CN(C)CCC[N+](C)(C)C/C=C/C1=C(C(=O)[O-])N2C(=O)[C@@H](NC(=O)/C(=N\OCF)c3nsc(N)n3)[C@H]2SC1` [Example 77]: 3.13 µg/mL (≈ 5.48 µM).
On the same count and under the same terms, next, `CN(C)CC(O)C[N+](C)(C)C/C=C/C1=C(C(=O)[O-])N2C(=O)[C@@H](NC(=O)/C(=N\OCF)c3nsc(N)n3)[C@H]2SC1` (stereo partly drawn) [Example 78]: 3.13 µg/mL (≈ 5.34 µM).
For `Cc1c(CCO)sc[n+]1C/C=C/C1=C(C(=O)[O-])N2C(=O)[C@@H](NC(=O)/C(=N\OCF)c3nsc(N)n3)[C@H]2SC1` [Example 81], the MIC stood at 1.56 µg/mL (≈ 2.67 µM).

The subject of another assay is Morganella morganii EP-14. Put plainly: Anti-bacterial activity (MIC), agar dilution. The class given is cell-based. As to conditions: Morganella morganii, EP14, 18 h, about 10^6 CFU/ml, 37° C., read-out: MIC. Put shortly:
as §1
For `C[N+](C)(C/C=C/C1=C(C(=O)[O-])N2C(=O)[C@@H](NC(=O)/C(=N\OCF)c3nsc(N)n3)[C@H]2SC1)CC(=O)NCC(N)=O` [Example 73], the MIC was determined as 0.1 µg/mL (≈ 0.167 µM).
In the case of `C[N+](C)(C/C=C/C1=C(C(=O)[O-])N2C(=O)[C@@H](NC(=O)/C(=N\OCF)c3nsc(N)n3)[C@H]2SC1)CC(=O)N(CCO)CCO` [Example 74], the MIC stood at 0.1 µg/mL (≈ 0.159 µM).
The same measure, in the same setting: next, `C[N+](C)(C/C=C/C1=C(C(=O)[O-])N2C(=O)[C@@H](NC(=O)/C(=N\OCF)c3nsc(N)n3)[C@H]2SC1)CC(=O)NCCO` [Example 75]: 0.05 µg/mL (≈ 0.0852 µM); `CN(C)CCC[N+](C)(C)C/C=C/C1=C(C(=O)[O-])N2C(=O)[C@@H](NC(=O)/C(=N\OCF)c3nsc(N)n3)[C@H]2SC1` [Example 77]: 0.4 µg/mL (≈ 0.701 µM); `CN(C)CC(O)C[N+](C)(C)C/C=C/C1=C(C(=O)[O-])N2C(=O)[C@@H](NC(=O)/C(=N\OCF)c3nsc(N)n3)[C@H]2SC1` (stereo partly drawn) [Example 78]: 0.2 µg/mL (≈ 0.341 µM).
Still for that read-out and setting: next, `Cc1c(CCO)sc[n+]1C/C=C/C1=C(C(=O)[O-])N2C(=O)[C@@H](NC(=O)/C(=N\OCF)c3nsc(N)n3)[C@H]2SC1` [Example 81]: at most 0.025 µg/mL.

The subject of the next assay is Escher. coli NIHJ. Nature of the assay: Anti-bacterial activity (MIC), agar dilution. The format is cell-based. As to conditions: Escherichia coli, 18 h, Escher. coli NIHJ; agar dilution, about 10^6 CFU/ml, 18 hours, 37° C.; read-out: MIC. An outline of the steps: as §1
Regarding `C[N+](C)(C/C=C/C1=C(C(=O)[O-])N2C(=O)[C@@H](NC(=O)/C(=N\OCF)c3nsc(N)n3)[C@H]2SC1)CC(=O)NCC(N)=O` [Example 73], the MIC turned out to be 0.05 µg/mL (≈ 0.0834 µM).
The same measure, in the same setting: next, `C[N+](C)(C/C=C/C1=C(C(=O)[O-])N2C(=O)[C@@H](NC(=O)/C(=N\OCF)c3nsc(N)n3)[C@H]2SC1)CC(=O)N(CCO)CCO` [Example 74]: 0.1 µg/mL (≈ 0.159 µM); `C[N+](C)(C/C=C/C1=C(C(=O)[O-])N2C(=O)[C@@H](NC(=O)/C(=N\OCF)c3nsc(N)n3)[C@H]2SC1)CC(=O)NCCO` [Example 75]: 0.05 µg/mL (≈ 0.0852 µM); `CN(C)CCC[N+](C)(C)C/C=C/C1=C(C(=O)[O-])N2C(=O)[C@@H](NC(=O)/C(=N\OCF)c3nsc(N)n3)[C@H]2SC1` [Example 77]: 0.2 µg/mL (≈ 0.35 µM).
As to `CN(C)CC(O)C[N+](C)(C)C/C=C/C1=C(C(=O)[O-])N2C(=O)[C@@H](NC(=O)/C(=N\OCF)c3nsc(N)n3)[C@H]2SC1` (stereo partly drawn) [Example 78], the MIC amounted to 0.2 µg/mL (≈ 0.341 µM).
Turning to `Cc1c(CCO)sc[n+]1C/C=C/C1=C(C(=O)[O-])N2C(=O)[C@@H](NC(=O)/C(=N\OCF)c3nsc(N)n3)[C@H]2SC1` [Example 81], the MIC was at most 0.025 µg/mL.

In a further assay the test system is Staph. aureus 209-P. Nature of the assay: Anti-bacterial activity (MIC), agar dilution. The class given is cell-based. As to conditions: Staphylococcus aureus, 209P, 18 h, Staph. aureus 209-P; agar dilution, about 10^6 CFU/ml, 18 hours, 37° C.; read-out: MIC. An outline of the steps: as §1
As to `C[N+](C)(C/C=C/C1=C(C(=O)[O-])N2C(=O)[C@@H](NC(=O)/C(=N\OCF)c3nsc(N)n3)[C@H]2SC1)CC(=O)NCC(N)=O` [Example 73], the MIC was 0.4 µg/mL (≈ 0.667 µM).
As for `C[N+](C)(C/C=C/C1=C(C(=O)[O-])N2C(=O)[C@@H](NC(=O)/C(=N\OCF)c3nsc(N)n3)[C@H]2SC1)CC(=O)N(CCO)CCO` [Example 74], the MIC stood at 0.8 µg/mL (≈ 1.27 µM).
Still for that read-out and setting: the value for `C[N+](C)(C/C=C/C1=C(C(=O)[O-])N2C(=O)[C@@H](NC(=O)/C(=N\OCF)c3nsc(N)n3)[C@H]2SC1)CC(=O)NCCO` [Example 75] was 0.4 µg/mL (≈ 0.682 µM); that for `CN(C)CCC[N+](C)(C)C/C=C/C1=C(C(=O)[O-])N2C(=O)[C@@H](NC(=O)/C(=N\OCF)c3nsc(N)n3)[C@H]2SC1` [Example 77] was 0.4 µg/mL (≈ 0.701 µM); that for `CN(C)CC(O)C[N+](C)(C)C/C=C/C1=C(C(=O)[O-])N2C(=O)[C@@H](NC(=O)/C(=N\OCF)c3nsc(N)n3)[C@H]2SC1` (stereo partly drawn) [Example 78] was 0.4 µg/mL (≈ 0.682 µM).
As for `Cc1c(CCO)sc[n+]1C/C=C/C1=C(C(=O)[O-])N2C(=O)[C@@H](NC(=O)/C(=N\OCF)c3nsc(N)n3)[C@H]2SC1` [Example 81], the MIC stood at 0.2 µg/mL (≈ 0.343 µM).

The next assay concerns Kleb. pneumoniae EK-6. Put plainly: Anti-bacterial activity (MIC), agar dilution. The class given is cell-based. The following applies: Klebsiella pneumoniae, EK6, 18 h, Kleb. pneumoniae EK-6; agar dilution, about 10^6 CFU/ml, 18 hours, 37° C.; read-out: MIC. Put shortly:
as §1
Regarding `C[N+](C)(C/C=C/C1=C(C(=O)[O-])N2C(=O)[C@@H](NC(=O)/C(=N\OCF)c3nsc(N)n3)[C@H]2SC1)CC(=O)NCC(N)=O` [Example 73], the MIC was 0.05 µg/mL (≈ 0.0834 µM).
Still for that read-out and setting: next, `C[N+](C)(C/C=C/C1=C(C(=O)[O-])N2C(=O)[C@@H](NC(=O)/C(=N\OCF)c3nsc(N)n3)[C@H]2SC1)CC(=O)N(CCO)CCO` [Example 74]: 0.05 µg/mL (≈ 0.0793 µM); `C[N+](C)(C/C=C/C1=C(C(=O)[O-])N2C(=O)[C@@H](NC(=O)/C(=N\OCF)c3nsc(N)n3)[C@H]2SC1)CC(=O)NCCO` [Example 75]: 0.05 µg/mL (≈ 0.0852 µM); `CN(C)CCC[N+](C)(C)C/C=C/C1=C(C(=O)[O-])N2C(=O)[C@@H](NC(=O)/C(=N\OCF)c3nsc(N)n3)[C@H]2SC1` [Example 77]: 0.2 µg/mL (≈ 0.35 µM).
Turning to `CN(C)CC(O)C[N+](C)(C)C/C=C/C1=C(C(=O)[O-])N2C(=O)[C@@H](NC(=O)/C(=N\OCF)c3nsc(N)n3)[C@H]2SC1` (stereo partly drawn) [Example 78], the MIC was found to be 0.2 µg/mL (≈ 0.341 µM).
Take `Cc1c(CCO)sc[n+]1C/C=C/C1=C(C(=O)[O-])N2C(=O)[C@@H](NC(=O)/C(=N\OCF)c3nsc(N)n3)[C@H]2SC1` [Example 81]: the MIC was at most 0.025 µg/mL.

The test system of the next assay is Ser. marcescens ES-75. Nature of the assay: Anti-bacterial activity (MIC), agar dilution. The following applies: Serratia marcescens, ES75, 18 h, Ser. marcescens ES-75; agar dilution, about 10^6 CFU/ml, 18 hours, 37° C.; read-out: MIC. The format is cell-based. An outline of the steps:
as §1
In the case of `C[N+](C)(C/C=C/C1=C(C(=O)[O-])N2C(=O)[C@@H](NC(=O)/C(=N\OCF)c3nsc(N)n3)[C@H]2SC1)CC(=O)NCC(N)=O` [Example 73], the MIC is 0.05 µg/mL (≈ 0.0834 µM).
On to `C[N+](C)(C/C=C/C1=C(C(=O)[O-])N2C(=O)[C@@H](NC(=O)/C(=N\OCF)c3nsc(N)n3)[C@H]2SC1)CC(=O)N(CCO)CCO` [Example 74], for which the MIC was determined as 0.4 µg/mL (≈ 0.634 µM).
On the same count and under the same terms, the value for `C[N+](C)(C/C=C/C1=C(C(=O)[O-])N2C(=O)[C@@H](NC(=O)/C(=N\OCF)c3nsc(N)n3)[C@H]2SC1)CC(=O)NCCO` [Example 75] was 0.2 µg/mL (≈ 0.341 µM); that for `CN(C)CCC[N+](C)(C)C/C=C/C1=C(C(=O)[O-])N2C(=O)[C@@H](NC(=O)/C(=N\OCF)c3nsc(N)n3)[C@H]2SC1` [Example 77] was 0.2 µg/mL (≈ 0.35 µM); that for `CN(C)CC(O)C[N+](C)(C)C/C=C/C1=C(C(=O)[O-])N2C(=O)[C@@H](NC(=O)/C(=N\OCF)c3nsc(N)n3)[C@H]2SC1` (stereo partly drawn) [Example 78] was 0.2 µg/mL (≈ 0.341 µM).
The same measure, in the same setting: next, `Cc1c(CCO)sc[n+]1C/C=C/C1=C(C(=O)[O-])N2C(=O)[C@@H](NC(=O)/C(=N\OCF)c3nsc(N)n3)[C@H]2SC1` [Example 81]: at most 0.025 µg/mL.
